Source: the NIST ThermoML archive (doi:10.1016/j.jct.2018.05.018)
± gives the expanded uncertainty stated by the source.

Conditions: 100 kPa, Liquid, Vibrating tube method

Row | Compound | mass density (293.15 K) [kg/m3] | mass density (298.15 K) [kg/m3] | mass density (303.15 K) [kg/m3] | mass density (308.15 K) [kg/m3] | mass density (313.15 K) [kg/m3] | mass density (318.15 K) [kg/m3] | mass density (323.15 K) [kg/m3]
1 | CCO [ethanol] | 789.48 ± 1.5 | 785.12 ± 1.5 | 780.86 ± 1.5 | 776.48 ± 1.5 | 772.17 ± 1.5 | 767.6 ± 1.5 | 763.22 ± 1.5
2 | CO [methanol] | 791.41 ± 1.5 | 786.65 ± 1.5 | 781.85 ± 1.5 | 776.95 ± 1.5 | 771.97 ± 1.5 | – | –
3 | CCCO [propan-1-ol] | 803.52 ± 1.5 | 799.52 ± 1.5 | 795.5 ± 1.5 | 791.43 ± 1.5 | 787.31 ± 1.5 | 783.11 ± 1.5 | 778.79 ± 1.5
